Values quoted from earlier work, collected in patent publication US20060088612A1, “Composition for treatment of topical infection and methods of making and using same” (priority 2004, published 2006).

System: HSV
Details: topical medication for HSV

For `CCCCCCCCCCCCCCCCCCCCCCO` [docosanol], the effectiveness versus placebo is given as “no more effective than a placebo”.
